US20220402925A1, “COMPOUNDS AND METHODS FOR THE TREATMENT OF CYSTIC FIBROSIS” (Flatley Discovery Lab, LLC, priority 2019, published 2022)

Target: T1, F508del CFTR (Homo sapiens, UniProt P13569, DEL508-508)
T1 construct: Primary CF airway epithelial cells were obtained from the UNC Cystic Fibrosis Tissue Procurement and Cell Culture Core; host or cells: primary CF airway epithelial cells
Assay: Equivalent current assay in primary CF airway epithelial cells (Corrector Activity, NAUC normalized to 3 μM VX809)
Assay type: cell-based
Conditions: NAUC as % of positive control (VX-809)
Procedure: Primary CF airway epithelial cells were obtained from the UNC Cystic Fibrosis Tissue Procurement and Cell Culture Core. The cells are grown at 37° C. in a Heracell 150i incubator using growth media (BEGM, Fischer). Cells were then transferred to differentiation media (airway liquid interface media (ALI) media; Lechner J F and LaVeck M A, J. Tissue Culture Methods 1985, 9: 43-48) for a minimum of 4 weeks on coated Costar transwells. Two days before the assay the mucus on the apical surface of the cells was aspirated after incubating with 200 μL of differentiation media for at least thirty (30) minutes. One day before the assay test compounds were added to the basolateral surface of the cells at various test concentrations dissolved in DMSO. Duplicate wells were prepared giving a n=4 or n=6 protocol.
Cells were treated for 24 hours with various combinations and concentrations of the test articles, reference standard (3 μM VX809, positive control). Compounds stock solutions were prepared in DMSO and diluted 1/1000 into ALI media to their final assay concentration. Cells were treated with combination solutions (2 mL of each dilution) and incubated at 37° C. for 24 h.
For the equivalent current assay, cells on six Transwell (24-well) plates were treated. Each Transwell plate was filled with 200 μl of HBS on the apical surface and 2 ml on the basolateral surface. Plates were placed horizontally in a heated mount at 37° C. and equilibrated for 30 minutes. Resting current was measured for 15 min and then blocked by the apical addition of 5 μM benzamil. After 20 min, CFTR activator (10 μM forskolin) and potentiator (either 1 μM VX-770 or 3 μM FDL176) were added to both the apical and basolateral side to stimulate CFTR. An increase in chloride current is seen as an upward deflection of the trace. After another 60 min, CFTR-172 (a CFTR inhibitor, 20 μM) and/or bumetanide (20 uM) was added to block CFTR mediated chloride current.
The raw data, voltage vs. time and resistance vs. time for the equivalent current assay (sampling interval: 6 minutes) were transferred to Excel (Microsoft Office Professional, version 14.0.7106.5003) for analysis. CFTR specific current was computed from I=V/R (Ohms Law), the average amplitude of the increase in current elicited upon addition forskolin and ending upon addition of the CFTR channel specific blocker CFTR-172. This average is equivalent to the sum of the average forskolin activated and the average VX770-potentiated currents. The average current measured in vehicle (0.1% DMSO) treated cells, IV, was subtracted from the current for the test article, ITA, or from the corrector reference standard VX809 (3 uM, ISTD). For replicate measurements, the averaged vehicle subtracted response for the test article, was normalized to the averaged vehicle subtracted response of the reference corrector VX809 (3 μM).
INSC=(ITA−IV)(ave)/(ISTD−IV)(ave) (Equation 1)
A second endpoint, for the equivalent current assay, evaluated was NAUC, the normalized area under the curve (AUC) measuring the response after addition of forskolin and potentiator to the time point right before the addition of the CFTR inhibitor. The AUC is effectively the average response multiplied by the duration of the response. The AUC of the test article, AUCTA was then corrected by subtracting the average vehicle response, AUCV,ave over the same time range, and normalized as for the inhibitor-sensitive current to the difference of the corrector reference standard VX809 (3 μM VX809r,ave and the vehicle response:
NAUCTA=[AUCTA−AUCV,ave]/[AUCVx809r,ave−AUCV,ave] (Equation 2).
The normalized value for DMSO is 0.0 and for VX-809 alone is 1.0 for both of these equations.
Experiments were run with a minimum of n=4 replicates per concentration. Since the distribution for the ratio of two normal distributions is a Cauchy distribution, the median value must be used for the average and the average deviation must be used for the error of all normalized data. […]

T1 sequence (P13569 with tags, fused parts or gaps DEL508-508): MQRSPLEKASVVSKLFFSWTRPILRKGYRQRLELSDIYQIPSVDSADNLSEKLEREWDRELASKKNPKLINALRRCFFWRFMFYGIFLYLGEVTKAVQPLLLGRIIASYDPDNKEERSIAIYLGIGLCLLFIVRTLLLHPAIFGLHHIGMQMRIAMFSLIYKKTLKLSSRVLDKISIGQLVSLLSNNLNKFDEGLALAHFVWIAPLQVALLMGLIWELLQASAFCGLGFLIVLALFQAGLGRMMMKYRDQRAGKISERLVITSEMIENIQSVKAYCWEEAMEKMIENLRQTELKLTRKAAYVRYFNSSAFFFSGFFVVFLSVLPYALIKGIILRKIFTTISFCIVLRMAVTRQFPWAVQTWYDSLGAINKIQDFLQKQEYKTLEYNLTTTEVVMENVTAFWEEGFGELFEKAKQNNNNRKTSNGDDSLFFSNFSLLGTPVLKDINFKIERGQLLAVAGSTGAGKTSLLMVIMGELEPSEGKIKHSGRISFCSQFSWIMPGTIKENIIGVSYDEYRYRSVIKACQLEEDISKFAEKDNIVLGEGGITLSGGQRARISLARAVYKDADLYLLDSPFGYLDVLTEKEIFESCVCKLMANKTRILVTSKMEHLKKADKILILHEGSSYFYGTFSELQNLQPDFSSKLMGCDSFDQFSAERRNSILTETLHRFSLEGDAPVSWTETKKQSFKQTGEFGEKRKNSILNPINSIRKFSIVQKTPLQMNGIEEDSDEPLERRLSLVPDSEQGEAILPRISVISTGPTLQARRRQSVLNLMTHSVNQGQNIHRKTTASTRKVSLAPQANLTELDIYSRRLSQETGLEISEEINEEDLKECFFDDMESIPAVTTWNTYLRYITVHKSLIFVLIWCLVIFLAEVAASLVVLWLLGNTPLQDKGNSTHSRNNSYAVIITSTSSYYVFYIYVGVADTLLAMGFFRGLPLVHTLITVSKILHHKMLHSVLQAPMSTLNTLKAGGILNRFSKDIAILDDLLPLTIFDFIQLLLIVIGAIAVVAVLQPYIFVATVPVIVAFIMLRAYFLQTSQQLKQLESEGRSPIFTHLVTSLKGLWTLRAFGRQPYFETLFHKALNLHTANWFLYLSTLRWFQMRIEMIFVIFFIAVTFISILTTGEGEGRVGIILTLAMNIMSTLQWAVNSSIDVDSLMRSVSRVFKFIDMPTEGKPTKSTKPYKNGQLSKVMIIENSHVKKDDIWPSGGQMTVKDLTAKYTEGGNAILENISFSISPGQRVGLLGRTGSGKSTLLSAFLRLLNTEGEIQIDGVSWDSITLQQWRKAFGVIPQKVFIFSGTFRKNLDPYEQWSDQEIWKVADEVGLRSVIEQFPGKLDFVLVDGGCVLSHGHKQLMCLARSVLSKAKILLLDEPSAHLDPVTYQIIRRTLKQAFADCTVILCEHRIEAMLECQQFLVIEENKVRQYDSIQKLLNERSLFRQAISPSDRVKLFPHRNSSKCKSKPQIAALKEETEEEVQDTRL

Compound | Corr Activity (NAUC)
CCN(C(=O)Cn1nc(-c2cc(F)cc(F)c2)c2oc(C)cc2c1=O)c1ccc2c(c1)OC(F)(F)O2 [Example 74] | +++ (NAUC>70% of positive control)
CCN(C(=O)Cn1nc(-c2cc(F)cc(C#N)c2)c2oc(C)cc2c1=O)c1ccc2c(c1)OC(F)(F)O2 [Example 76] | +++ (NAUC>70% of positive control)
Cc1cc2c(=O)n(CC(=O)N(c3ccc4c(c3)OC(F)(F)O4)C3CC3)nc(-c3cc(F)cc(F)c3)c2o1 [Example 78] | +++ (NAUC>70% of positive control)
CCN(C(=O)Cn1nc(-c2cc(C)cc(Cl)c2)c2occc2c1=O)c1ccc2c(c1)OC(F)(F)O2 [Example 79] | +++ (NAUC>70% of positive control)
CCN(C(=O)Cn1nc(-c2cc(C)cc(F)c2)c2occc2c1=O)c1ccc2c(c1)OC(F)(F)O2 [Example 83] | +++ (NAUC>70% of positive control)
Cc1cc(Cl)cc(-c2nn(CC(=O)N(C)c3ccc4c(c3)OC(F)(F)O4)c(=O)c3ccoc23)c1 [Example 85] | +++ (NAUC>70% of positive control)
Cc1cc(C#N)cc(-c2nn(CC(=O)N(C)c3ccc4c(c3)OC(F)(F)O4)c(=O)c3ccoc23)c1 [Example 86] | +++ (NAUC>70% of positive control)
CN(C(=O)Cn1nc(-c2cccc(C(C)(C)C)c2)c2occc2c1=O)c1ccc2c(c1)OC(F)(F)O2 [Example 87] | + (NAUC<40% of positive control)
CCN(C(=O)Cn1nc(-c2cccc(C(C)(C)C)c2)c2occc2c1=O)c1ccc2c(c1)OC(F)(F)O2 [Example 88] | ++ (NAUC 70-40% of positive control)
CCN(C(=O)Cn1nc(-c2cccc(OC(C)(C)C)c2)c2occc2c1=O)c1ccc2c(c1)OC(F)(F)O2 [Example 89] | ++ (NAUC 70-40% of positive control)
CCN(C(=O)Cn1nc(-c2cccc(OC(F)(F)F)c2)c2occc2c1=O)c1ccc2c(c1)OC(F)(F)O2 [Example 91] | +++ (NAUC>70% of positive control)
Cc1nc2ccc(N(C)C(=O)Cn3nc(-c4cccc(C(C)(C)C)c4)c4occc4c3=O)cc2o1 [Example 92] | + (NAUC<40% of positive control)
Cc1nc2ccc(N(C)C(=O)Cn3nc(-c4cccc(OC(F)(F)F)c4)c4occc4c3=O)cc2o1 [Example 93] | + (NAUC<40% of positive control)
CCN(C(=O)Cn1nc(-c2cccc(OC(F)(F)F)c2)c2occc2c1=O)c1ccc2nc(C)oc2c1 [Example 94] | ++ (NAUC 70-40% of positive control)
COC(=O)c1ccc(-c2nn(CC(=O)N(C)c3ccc4c(c3)OC(F)(F)O4)c(=O)c3ccoc23)cc1C#N [Example 95] | ++ (NAUC 70-40% of positive control)
CCOC(=O)c1ccc(-c2nn(CC(=O)N(CC)c3ccc4c(c3)OC(F)(F)O4)c(=O)c3ccoc23)cc1C#N [Example 96] | +++ (NAUC>70% of positive control)
CN(C(=O)Cn1nc(-c2cc(C#N)cc(C(F)(F)F)c2)c2occc2c1=O)c1ccc2c(c1)OC(F)(F)O2 [Example 98] | ++ (NAUC 70-40% of positive control)
CCN(C(=O)Cn1nc(-c2cc(C#N)cc(C(F)F)c2)c2occc2c1=O)c1ccc2c(c1)OC(F)(F)O2 [Example 99] | +++ (NAUC>70% of positive control)
COc1cc(C#N)cc(-c2nn(CC(=O)N3CCCc4c3ccc3c4OC(F)(F)O3)c(=O)c3ccoc23)c1 [Example 105] | +++ (NAUC>70% of positive control)
CCN(C(=O)Cn1nc(-c2cccc(F)c2)c2occc2c1=O)c1ccc2c(c1F)OC(F)(F)O2 [Example 109] | +++ (NAUC>70% of positive control)
CCN(C(=O)Cn1nc(-c2cc(C#N)cc(C(C)(C)C)c2)c2occc2c1=O)c1ccc2c(c1)OC(F)(F)O2 [Example 111] | +++ (NAUC>70% of positive control)
CCN(C(=O)Cn1nc(-c2cc(Cl)cc(OC)c2)c2occc2c1=O)c1ccc2c(c1)OC(F)(F)O2 [Example 112] | +++ (NAUC>70% of positive control)
CCN(C(=O)Cn1nc(-c2cccc(F)c2)c2oc(C(=O)NC(C)(C)C)cc2c1=O)c1ccc2c(c1)OC(F)(F)O2 [Example 119] | +++ (NAUC>70% of positive control)
CCN(C(=O)Cn1nc(-c2cccc(C#N)c2)c2oc(C(=O)NC(C)(C)C)cc2c1=O)c1ccc2c(c1)OC(F)(F)O2 [Example 121] | +++ (NAUC>70% of positive control)
CCN(C(=O)Cn1nc(-c2cccc(OC(C)(C)C)c2)c2oc(C(=O)NC(C)(C)C)cc2c1=O)c1ccc2c(c1)OC(F)(F)O2 [Example 122] | ++ (NAUC 70-40% of positive control)

More lines, now with the values ahead:

Corr Activity (NAUC) | Compound
+++ (NAUC>70% of positive control) | CCN(C(=O)Cn1nc(-c2cc(F)cc(Cl)c2)c2oc(C)cc2c1=O)c1ccc2c(c1)OC(F)(F)O2 [Example 75]
+++ (NAUC>70% of positive control) | Cc1cc2c(=O)n(CC(=O)N(c3ccc4c(c3)OC(F)(F)O4)C3CC3)nc(-c3cc(Cl)cc(Cl)c3)c2o1 [Example 77]
+++ (NAUC>70% of positive control) | CCN(C(=O)Cn1nc(-c2cc(C)cc(C#N)c2)c2occc2c1=O)c1ccc2c(c1)OC(F)(F)O2 [Example 84]
++ (NAUC 70-40% of positive control) | CN(C(=O)Cn1nc(-c2cccc(OC(F)(F)F)c2)c2occc2c1=O)c1ccc2c(c1)OC(F)(F)O2 [Example 90]
+ (NAUC<40% of positive control) | CCN(C(=O)Cn1nc(-c2cc(C#N)cc(C(F)(F)F)c2)c2occc2c1=O)c1ccc2c(c1)OC(F)(F)O2 [Example 97]
+++ (NAUC>70% of positive control) | CN(C(=O)Cn1nc(-c2cc(C#N)cc(C(F)F)c2)c2occc2c1=O)c1ccc2c(c1F)OC(F)(F)O2 [Example 101]
++ (NAUC 70-40% of positive control) | O=C(Cn1nc(-c2cccc(F)c2)c2occc2c1=O)N1CCCc2c1ccc1c2OC(F)(F)O1 [Example 102]
++ (NAUC 70-40% of positive control) | N#Cc1cc(Cl)cc(-c2nn(CC(=O)N3CCCc4c3ccc3c4OC(F)(F)O3)c(=O)c3ccoc23)c1 [Example 103]
+++ (NAUC>70% of positive control) | N#Cc1cc(F)cc(-c2nn(CC(=O)N3CCCc4c3ccc3c4OC(F)(F)O3)c(=O)c3ccoc23)c1 [Example 104]
+++ (NAUC>70% of positive control) | CN(C(=O)Cn1nc(-c2cccc(F)c2)c2occc2c1=O)c1ccc2c(c1F)OC(F)(F)O2 [Example 108]
+++ (NAUC>70% of positive control) | CCN(C(=O)Cn1nc(-c2cc(C#N)cc(OC)c2)c2occc2c1=O)c1ccc2c(c1)OC(F)(F)O2 [Example 110]
+++ (NAUC>70% of positive control) | CCN(C(=O)Cn1nc(-c2cccc(Cl)c2)c2oc(C(=O)NC(C)(C)C)cc2c1=O)c1ccc2c(c1)OC(F)(F)O2 [Example 120]
+ (NAUC<40% of positive control) | CN(C(=O)Cn1nc(-c2cccc(OC(C)(C)C)c2)c2oc(C(=O)NC(C)(C)C)cc2c1=O)c1ccc2c(c1)OC(F)(F)O2 [Example 123]
++ (NAUC 70-40% of positive control) | CCN(C(=O)Cn1nc(-c2cccc(OC(F)(F)F)c2)c2oc(C(=O)NC(C)(C)C)cc2c1=O)c1ccc2c(c1)OC(F)(F)O2 [Example 124]
++ (NAUC 70-40% of positive control) | CN(C(=O)Cn1nc(-c2cccc(OC(F)(F)F)c2)c2oc(C(=O)NC(C)(C)C)cc2c1=O)c1ccc2c(c1)OC(F)(F)O2 [Example 125]
+++ (NAUC>70% of positive control) | CN(C(=O)Cn1nc(-c2cccc(C(C)(C)C)c2)c2oc(C(=O)NC(C)(C)C)cc2c1=O)c1ccc2c(c1)OC(F)(F)O2 [Example 126]
